Data on 20 molecules can be found in publication PMC6556873, “Rapid Covalent-Probe Discovery by Electrophile-Fragment Screening” (Journal of the American Chemical Society, 2019).

Each structure is given as a SMILES string. Where two headings read alike, the source gives them in different places.

The nature of series [1]: in vitro. Further details: species or system CCD841, HEK293. To be noted: human, hb2 cells, read-out: HB-2 Cells Viability (%).
A further series deals with T1, PCAF (Homo sapiens, UniProt Q92831).
T1 construct: gene KAT2B
T1 sequence (Q92831 whole entry): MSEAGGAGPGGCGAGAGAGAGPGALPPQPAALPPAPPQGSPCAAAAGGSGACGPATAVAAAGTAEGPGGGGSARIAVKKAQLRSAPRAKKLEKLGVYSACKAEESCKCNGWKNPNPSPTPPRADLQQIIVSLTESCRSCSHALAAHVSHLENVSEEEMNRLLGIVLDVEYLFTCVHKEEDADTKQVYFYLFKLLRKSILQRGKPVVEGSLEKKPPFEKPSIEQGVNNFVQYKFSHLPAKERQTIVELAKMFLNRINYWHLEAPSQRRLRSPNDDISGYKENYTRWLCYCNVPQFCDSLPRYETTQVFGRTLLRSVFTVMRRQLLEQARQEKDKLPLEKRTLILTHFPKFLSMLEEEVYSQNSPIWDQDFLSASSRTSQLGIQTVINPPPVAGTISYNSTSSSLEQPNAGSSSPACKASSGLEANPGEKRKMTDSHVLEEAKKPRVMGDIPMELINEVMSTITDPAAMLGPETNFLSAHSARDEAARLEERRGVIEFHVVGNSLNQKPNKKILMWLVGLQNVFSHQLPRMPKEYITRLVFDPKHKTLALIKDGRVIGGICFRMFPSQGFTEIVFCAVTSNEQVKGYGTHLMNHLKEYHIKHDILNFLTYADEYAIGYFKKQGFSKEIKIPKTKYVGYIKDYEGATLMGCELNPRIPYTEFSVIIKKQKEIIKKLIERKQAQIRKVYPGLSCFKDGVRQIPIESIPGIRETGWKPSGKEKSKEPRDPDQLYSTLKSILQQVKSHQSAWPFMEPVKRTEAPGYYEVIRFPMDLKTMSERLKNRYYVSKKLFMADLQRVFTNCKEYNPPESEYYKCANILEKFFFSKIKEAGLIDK
Details: Intact protein LC/MS covalent labelling, fragments in pools of five, 200 uM each, 4 °C. As to conditions: 24 h, 4 °C, pool of five; 200 µM; covalent. As for the experimental part: (§1) Incubations were performed at 200 μM for each compound and 2 μM of protein (10 μM for BSA) for 24 h at 4 °C with moderate shaking. Incubation buffers varied among proteins (PBS pH 7.4 for QSOX1 and BSA; 10 mM HEPES pH 7.5, 0.3 M NaCl, 0.5 mM TCEP for PCAF, UPS8, and NUDT7; […]; 10 mM Na2HPO4 pH 7.5 100 mM NaCl 5 mM β-mercaptoethanol for NV3CP; 20 mM Na phosphate pH 7.5 for NNMT; […]. The reaction was stopped by quenching with formic acid, 0.4% final concentration. Each protein was incubated with the electrophilic library in pools of five compounds per well. The pool’s composition maximized the difference in mass between fragments in the same well. Incubations were performed with each fragment at 200 μM, for 24 h at 4 °C, to allow the screening of proteins that are not stable for long time periods at higher temperatures. Following incubation, we used intact protein [compound left out] chromatography/mass spectrometry (LC/MS) to identify the fragments and quantify their labeling (Figure 3A). […] There was good agreement between the percent of labeling of NUDT7 by 100 random individual compounds and that obtained in pools of five (R^2=0.78; Figure S6 and Data set 2 in the Supporting Information).

Another series has as its target T2, BSA (Bos taurus, UniProt P02769).
T2 construct: gene ALB
Details: Intact protein LC/MS covalent labelling, fragments in pools of five, 200 uM each, 4 °C. To be noted: 24 h, 4 °C, pool of five; 200 µM; covalent. As for the experimental part:
as §1

Another series has as its target T3, NUDT7 (Homo sapiens, UniProt P0C024).
T3 construct: residues 14-235, E. coli, pNIC28-Bsa4, N-terminal His6 tag removed by TEV, construct 26672 Da
Further details: Intact protein LC/MS covalent labelling, fragments in pools of five, 200 uM each, 4 °C. As to conditions: 24 h, 4 °C, pool of five; 200 µM; covalent. As for the experimental part: as §1

Another series deals with T4, OTUB2 (OTUB2A) (Homo sapiens, UniProt Q96DC9).
T4 construct: full length residues 1-234, E. coli BL21(DE3)-R3, His tag removed by TEV, construct 27312 Da
T4 sequence (Q96DC9 1-234): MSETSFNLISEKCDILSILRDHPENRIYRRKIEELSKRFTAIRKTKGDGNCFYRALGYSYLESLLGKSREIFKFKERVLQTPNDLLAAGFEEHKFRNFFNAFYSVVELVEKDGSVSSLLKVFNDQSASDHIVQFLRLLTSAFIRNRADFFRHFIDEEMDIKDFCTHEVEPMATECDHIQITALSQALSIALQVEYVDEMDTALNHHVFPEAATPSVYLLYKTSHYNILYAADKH
Further details: Intact protein LC/MS covalent labelling, fragments in pools of five, 200 uM each, 4 °C. To be noted: 24 h, 4 °C, pool of five; 200 µM; covalent. As for the experimental part:
as §1

Series [2] is described as follows: in vitro. Details: species or system HB2, CCD841. As to conditions: human, hek293 cells.
Series [3] can be described thus: in vitro. Further details: species or system HB2, HEK293. To be noted: human, ccd841 cells.

The term viability denotes a read-out of living cells in per cent, often relative to untreated cells.

T3 sequence (P0C024 14-235): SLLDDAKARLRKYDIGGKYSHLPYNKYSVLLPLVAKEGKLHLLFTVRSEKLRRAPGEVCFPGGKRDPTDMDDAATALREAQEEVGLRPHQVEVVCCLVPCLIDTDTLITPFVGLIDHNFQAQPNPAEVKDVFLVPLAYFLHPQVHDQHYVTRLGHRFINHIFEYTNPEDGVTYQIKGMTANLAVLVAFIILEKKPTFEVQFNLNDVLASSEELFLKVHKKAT
T2 sequence (P02769 whole entry): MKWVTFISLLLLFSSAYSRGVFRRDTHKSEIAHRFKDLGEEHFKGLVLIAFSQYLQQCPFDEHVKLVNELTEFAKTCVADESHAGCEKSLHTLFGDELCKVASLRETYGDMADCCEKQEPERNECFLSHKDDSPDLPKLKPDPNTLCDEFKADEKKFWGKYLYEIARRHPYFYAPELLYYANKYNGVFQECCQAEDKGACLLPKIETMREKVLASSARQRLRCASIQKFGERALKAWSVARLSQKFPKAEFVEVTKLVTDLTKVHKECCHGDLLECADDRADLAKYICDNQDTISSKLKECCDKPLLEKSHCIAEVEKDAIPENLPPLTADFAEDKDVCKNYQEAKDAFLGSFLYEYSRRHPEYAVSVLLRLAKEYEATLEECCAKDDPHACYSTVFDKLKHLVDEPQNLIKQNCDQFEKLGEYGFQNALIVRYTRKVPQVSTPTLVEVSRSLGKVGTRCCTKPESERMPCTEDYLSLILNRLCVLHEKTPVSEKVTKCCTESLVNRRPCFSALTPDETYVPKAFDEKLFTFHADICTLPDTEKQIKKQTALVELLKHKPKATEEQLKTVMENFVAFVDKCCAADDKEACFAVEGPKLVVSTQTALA

As for `O=C(CCl)N1CCN(c2ccc([N+](=O)[O-])cc2)CC1` [PCM-0102094], the figures for the viability at 48 h, 10 µM in “in vitro [1]”, in the series “in vitro [2]” and in “in vitro [3]” were 1.2%, 1.3% and 9.2%, respectively. On PCAF, this molecule came in with a PCAF of 0. The BSA at BSA is 0. On NUDT7, this molecule came in with an NUDT7 of 0.27. Further, the OTUB2 on OTUB2 (OTUB2A) is recorded as 0.
As for `CC(NC(=O)CCl)c1ccc(Cl)c(Cl)c1` (centres unmarked) [PCM-0102096], the values for the viability at 48 h, 10 µM in the series “in vitro [1]”, in “in vitro [2]” and in the series “in vitro [3]” were 28.9%, 21.3% and 58.1%, respectively. The PCAF on PCAF was 0. On BSA, this molecule displayed a BSA of 0. The NUDT7 at NUDT7 was 0.51. On OTUB2 (OTUB2A), this molecule had an OTUB2 of 0.26.
As to `O=C(CCl)Nc1cccc2ncccc12` [PCM-0102097], the viability at 48 h, 10 µM in “in vitro [1]” was 49%; in “in vitro [2]” it was 27.9%; in “in vitro [3]”, 51.3%. Further, the PCAF at PCAF stood at 0. The same molecule came in with a BSA at BSA of 0. Further, on NUDT7, the NUDT7 worked out at 0. Moreover, on OTUB2 (OTUB2A), the OTUB2 amounted to 0.42.
As for `Cc1ccc([N+](=O)[O-])cc1NC(=O)CCl` [PCM-0102098], the viability at 48 h, 10 µM was found to be 1.1% in the series “in vitro [1]”, 1.2% in the series “in vitro [2]” and 2% in “in vitro [3]”. The molecule also gave a PCAF on PCAF of 0. The BSA at BSA turned out to be 0. This molecule gave an NUDT7 at NUDT7 of 0.12. The OTUB2 at OTUB2 (OTUB2A) amounted to 0.33.
With `Cc1c(C#N)c(NC(=O)CCl)n(-c2ccc(F)cc2)c1C` [PCM-0102099], the figures for the viability at 48 h, 10 µM in “in vitro [1]”, in the series “in vitro [2]” and in “in vitro [3]” were 33.6%, 11.6% and 53.9%, respectively. The same molecule gave a PCAF at PCAF of 0. This molecule came in with a BSA at BSA of 0. The same molecule displayed an NUDT7 on NUDT7 of 0.17. Besides, the OTUB2 at OTUB2 (OTUB2A) came to 0.
On to `O=C(CCl)Nc1ccc(-c2nnc3n2CCCCC3)cc1` [PCM-0102101], for which the viability at 48 h, 10 µM in the series “in vitro [1]” turned out to be 36.7%; in “in vitro [2]”, 17.5%; in the series “in vitro [3]”, 61.9%. On PCAF, this molecule came in with a PCAF of 0. Moreover, the BSA at BSA came to 0. Besides, the NUDT7 on NUDT7 stood at 0. Further, the OTUB2 on OTUB2 (OTUB2A) was 0.28.
On to `Cc1ccc(C2=NN(C(=O)CCl)C(c3ccco3)C2)o1` (centres unmarked) [PCM-0102102], for which the values for the viability at 48 h, 10 µM in “in vitro [1]”, in “in vitro [2]” and in “in vitro [3]” were 9.4%, 1.6% and 12.7%, respectively. The same molecule had a PCAF on PCAF of 0. Further, the BSA on BSA amounted to 0. For the same molecule, at NUDT7, the NUDT7 came out at 0.2. Besides, on OTUB2 (OTUB2A), the OTUB2 came out at 0.
Consider `CCN1CCC(NC(=O)CCl)CC1.Cl` [PCM-0102103], for which the viability at 48 h, 10 µM came to 96% in the series “in vitro [1]”, 66.8% in “in vitro [2]” and 84.1% in “in vitro [3]”. This molecule came in with a PCAF on PCAF of 0. At BSA, this molecule came in with a BSA of 0. In addition, the NUDT7 at NUDT7 is 0. Moreover, the OTUB2 on OTUB2 (OTUB2A) was 0.
As to `O=C(CCl)Nc1ccc2c(c1)OC1(CCCCC1)O2` [PCM-0102104], the viability at 48 h, 10 µM in “in vitro [1]” was found to be 5.9%; in “in vitro [2]”, 1.4%; in the series “in vitro [3]” it was 62.1%. Further, at PCAF, the PCAF is on record as 0. For the same molecule, the BSA at BSA is 0. For the same molecule, the NUDT7 on NUDT7 came out at 0.08. In addition, the OTUB2 at OTUB2 (OTUB2A) is 0.47.
On to `CCN(C(=O)CCl)C1CCS(=O)(=O)C1` (centres unmarked) [PCM-0102105], for which the viability at 48 h, 10 µM is 95% in the series “in vitro [1]”, 54.9% in “in vitro [2]” and 68.1% in the series “in vitro [3]”. The PCAF on PCAF is reported as 0. This molecule yielded a BSA on BSA of 0. At NUDT7, this molecule returned an NUDT7 of 0. This molecule gave an OTUB2 on OTUB2 (OTUB2A) of 0.
Turning to `C=CC(=O)NC(=O)NC12CC3CC(CC(C3)C1)C2` [PCM-0102106], the viability at 48 h, 10 µM in the series “in vitro [1]” was found to be 26.6%; in the series “in vitro [2]”, 42%; in “in vitro [3]”, 80.9%. At PCAF, this molecule showed a PCAF of 0. Moreover, the BSA on BSA was 0. This molecule yielded an NUDT7 on NUDT7 of 0.79. This molecule came in with an OTUB2 on OTUB2 (OTUB2A) of 0.
On to `N#Cc1c2c(n(-c3ccccc3)c1NC(=O)CCl)CCCC2` [PCM-0102107], for which the results for the viability at 48 h, 10 µM in the series “in vitro [1]”, in “in vitro [2]” and in “in vitro [3]” were 18%, 7.6% and 53.9%, respectively. Also, on PCAF, the PCAF is on record as 0. On BSA, this molecule showed a BSA of 0. Further, the NUDT7 on NUDT7 amounted to 0.46. On OTUB2 (OTUB2A), this molecule returned an OTUB2 of 0.08.
Consider `O=C(CCl)NC1CCCCNC1=O` (centres unmarked) [PCM-0102109], for which the viability at 48 h, 10 µM in the series “in vitro [1]” was 94.1%; in “in vitro [2]”, 109%; in “in vitro [3]”, 103%. The PCAF on PCAF came to 0. Further, the BSA at BSA was 0. For the same molecule, the NUDT7 on NUDT7 is reported as 0. The molecule further displayed an OTUB2 at OTUB2 (OTUB2A) of 0.
Take `CC(NC(=O)CCl)c1ccccc1Cl` (centres unmarked) [PCM-0102110]: the viability at 48 h, 10 µM amounted to 70.8% in “in vitro [1]”, 65.7% in the series “in vitro [2]” and 74.2% in the series “in vitro [3]”. The PCAF on PCAF is listed as 0. Also, on BSA, the BSA was found to be 0. The molecule further gave an NUDT7 at NUDT7 of 0. In addition, the OTUB2 at OTUB2 (OTUB2A) turned out to be 0.25.
On to `O=C(CCl)Nc1ccc(Cl)c(Cl)c1` [PCM-0102112], for which the viability at 48 h, 10 µM is 2% in the series “in vitro [1]”, 1.4% in the series “in vitro [2]” and 26% in “in vitro [3]”. The PCAF on PCAF was 0. The BSA on BSA stood at 0. This molecule also registered an NUDT7 on NUDT7 of 0.18. The molecule further had an OTUB2 at OTUB2 (OTUB2A) of 0.3.
As for `CC(=O)Nc1ccc(NC(=O)CCl)cc1` [PCM-0102114], the viability at 48 h, 10 µM stood at 69.9% in the series “in vitro [1]”, 56% in the series “in vitro [2]” and 57.7% in “in vitro [3]”. Further, at PCAF, the PCAF is 0. Also, at BSA, the BSA stood at 0. This molecule displayed an NUDT7 at NUDT7 of 0. At OTUB2 (OTUB2A), this molecule registered an OTUB2 of 0.
Regarding `Cc1cccc(NC(=O)CCl)c1` [PCM-0102116], the results for the viability at 48 h, 10 µM in “in vitro [1]”, in “in vitro [2]” and in the series “in vitro [3]” were 33.7%, 9% and 66.4%, respectively. The molecule also came in with a PCAF on PCAF of 0. Also, the BSA on BSA was 0. Moreover, at NUDT7, the NUDT7 was determined as 0. The same molecule returned an OTUB2 on OTUB2 (OTUB2A) of 0.11.
Take `CC(NC(=O)CCl)c1cc2ccccc2o1` (centres unmarked) [PCM-0102117]: the viability at 48 h, 10 µM in “in vitro [1]” is 71%; in “in vitro [2]”, 62.9%; in the series “in vitro [3]”, 70.7%. Besides, the PCAF on PCAF worked out at 0. On BSA, this molecule came in with a BSA of 0. For the same molecule, at NUDT7, the NUDT7 is on record as 0.12. The molecule further had an OTUB2 on OTUB2 (OTUB2A) of 0.41.
As for `O=C(CCl)Nc1ccc(Cl)cc1` [PCM-0102120], the viability at 48 h, 10 µM in “in vitro [1]” is 16.7%; in the series “in vitro [2]” it was 2.7%; in the series “in vitro [3]” it was 55.2%. The molecule further registered a PCAF on PCAF of 0. On BSA, the BSA is recorded as 0. The molecule further had an NUDT7 on NUDT7 of 0.18. Also, at OTUB2 (OTUB2A), the OTUB2 was determined as 0.23.
Turning to `O=C(CCl)N1CCN(S(=O)(=O)c2ccc(Cl)s2)CC1` [PCM-0102121], the viability at 48 h, 10 µM in “in vitro [1]” was determined as 1.7%; in “in vitro [2]” it was 2%; in “in vitro [3]”, 20.6%. At PCAF, the PCAF was 0. Besides, the BSA at BSA was determined as 0. Further, the NUDT7 at NUDT7 was 0.15. This molecule yielded an OTUB2 at OTUB2 (OTUB2A) of 0.
